ChEMBL document CHEMBL1201862, “PubChem BioAssay data set” (2004)
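1) Cells in 96-well plates. 2) Compound, 48 h, 5 concentrations. 3) Linear interpolation between surrounding doses. 4) Unreached endpoint = highest concentration. GI50: concentration for 50% inhibition of growth.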 Active and inactive are the calls of the source. Cut-off read from the data, not from the text of the source: active = GI50 up to about 1.1 µM and inactive = higher. Square brackets hold non-standard residues; d marks the D form. Peptide text beside a SMILES is read from it. * marks the point of attachment. X26 = COC1=CC(=O)N(C(=O)[C@@H](O*)C(C)C)[C@H]1Cc1ccccc1; NMeV = CN[C@H](C(=O)O)C(C)C; Hexanoyl = CCCCCC(=O)*

Legend:
Assay in all cases: NCI-60 cell line screen, 48 h
OVCAR-8 = system: OVCAR-8
CAKI-1 = system: CAKI-1
SN12C = system: SN12C
LOX IMVI = system: LOX IMVI
HCT-116 = system: HCT-116
A498 = system: A498
SK-OV-3 = system: SK-OV-3
HT-29 = system: HT-29
MCF7 = system: MCF7
KM12 = system: KM12
SK-MEL-2 = system: SK-MEL-2
SK-MEL-5 = system: SK-MEL-5
HOP-92 = system: HOP-92
OVCAR-3 = system: OVCAR-3
A549 = system: A549
SK-MEL-28 = system: SK-MEL-28
T47D = system: T47D
NCI-H226 = system: NCI-H226
SNB-75 = system: SNB-75
ACHN = system: ACHN

Structure (SMILES) | GI50 (OVCAR-8) | GI50 (CAKI-1) | GI50 (SN12C) | GI50 (LOX IMVI) | GI50 (HCT-116) | GI50 (A498) | GI50 (SK-OV-3) | GI50 (HT-29) | GI50 (MCF7) | GI50 (KM12) | GI50 (SK-MEL-2) | GI50 (SK-MEL-5) | GI50 (HOP-92) | GI50 (OVCAR-3) | GI50 (A549) | GI50 (SK-MEL-28) | GI50 (T47D) | GI50 (NCI-H226) | GI50 (SNB-75) | GI50 (ACHN)
COc1ccc(Nc2nc3ccc(C(F)(F)F)cc3nc2C(=O)O)cc1 | 30.8 µM (inactive) | 46.8 µM (inactive) | 30.3 µM (inactive) | 32.5 µM (inactive) | 34.7 µM (inactive) | 16.7 µM (inactive) | 20.4 µM (inactive) | 36.9 µM (inactive) | 36.6 µM (inactive) | 23.5 µM (inactive) | 43.9 µM (inactive) | 26.5 µM (inactive) | 29.6 µM (inactive) | 19.9 µM (inactive) | 29.4 µM (inactive) | 30.6 µM (inactive) | 33.4 µM (inactive) | 20.6 µM (inactive) | 34.1 µM (inactive) | –
CC(=O)OCC1OC(NC(=S)Nn2c(-c3ccccc3)nc3ccccc3c2=O)C(OC(C)=O)C(OC(C)=O)C1OC(C)=O (stereo not drawn) | > 100 µM (inactive) | > 100 µM (inactive) | 93.1 µM (inactive) | > 100 µM (inactive) | > 100 µM (inactive) | > 100 µM (inactive) | > 100 µM (inactive) | > 100 µM (inactive) | 85.9 µM (inactive) | > 100 µM (inactive) | 25.9 µM (inactive) | 35.8 µM (inactive) | 38.4 µM (inactive) | 30.8 µM (inactive) | > 100 µM (inactive) | 90.2 µM (inactive) | 19.4 µM (inactive) | 14.7 µM (inactive) | 96.8 µM (inactive) | > 100 µM (inactive)
CC1CC2OC(=N)C1(C#N)C2(C#N)C#N (stereo not drawn) | 25.1 µM (inactive) | 7.57 µM (inactive) | 19.5 µM (inactive) | 14.7 µM (inactive) | 16.3 µM (inactive) | 20.3 µM (inactive) | > 100 µM (inactive) | 19.4 µM (inactive) | 28 µM (inactive) | 39.3 µM (inactive) | 20.3 µM (inactive) | 10.4 µM (inactive) | 17.9 µM (inactive) | – | > 100 µM (inactive) | 35.3 µM (inactive) | 25.9 µM (inactive) | 38.4 µM (inactive) | 11.5 µM (inactive) | 31.4 µM (inactive)
Cc1c(C)c(C)n(C2OC(CO)C(O)C(O)C2O)c(=S)c1C#N (stereo not drawn) | > 100 µM (inactive) | – | > 100 µM (inactive) | > 100 µM (inactive) | > 100 µM (inactive) | > 100 µM (inactive) | > 100 µM (inactive) | > 100 µM (inactive) | > 100 µM (inactive) | > 100 µM (inactive) | > 100 µM (inactive) | > 100 µM (inactive) | > 100 µM (inactive) | > 100 µM (inactive) | > 100 µM (inactive) | > 100 µM (inactive) | > 100 µM (inactive) | > 100 µM (inactive) | > 100 µM (inactive) | > 100 µM (inactive)
CCCCCNC(=O)OC1CCn2c1nc1c2C(=O)C(C)=C(N2CC2)C1=O (stereo not drawn) | 1.46 µM (inactive) | 1.2 µM (inactive) | 1.43 µM (inactive) | 0.229 µM (active) | 1.24 µM (inactive) | 1.75 µM (inactive) | – | 0.593 µM (active) | 0.453 µM (active) | 1.64 µM (inactive) | 1.63 µM (inactive) | 0.568 µM (active) | 21.4 µM (inactive) | 1.79 µM (inactive) | 0.526 µM (active) | 1.41 µM (inactive) | 3.23 µM (inactive) | 2 µM (inactive) | 1.22 µM (inactive) | 0.548 µM (active)
OCC1OC(n2cnc3c(Cl)nc(Nc4ccc(Cl)c(Cl)c4)nc32)CC1O (stereo not drawn) | 10.3 µM (inactive) | 16.3 µM (inactive) | 10.5 µM (inactive) | 7.78 µM (inactive) | 11 µM (inactive) | 10.7 µM (inactive) | 13.6 µM (inactive) | 7.71 µM (inactive) | 11 µM (inactive) | 8.83 µM (inactive) | 9.53 µM (inactive) | 8.34 µM (inactive) | 8.18 µM (inactive) | 12.2 µM (inactive) | 14.2 µM (inactive) | – | 13.3 µM (inactive) | 8.15 µM (inactive) | 15.7 µM (inactive) | 8.69 µM (inactive)
Cc1ccnc2nc(-c3ccc4ccccc4c3)cc(O)c12 | 2.83 µM (inactive) | – | 4.01 µM (inactive) | 0.818 µM (active) | – | 1.49 µM (inactive) | 1.09 µM (active) | 0.8 µM (active) | 0.258 µM (active) | 0.452 µM (active) | 0.865 µM (active) | – | 0.592 µM (active) | – | 1.4 µM (inactive) | 1.76 µM (inactive) | 7.82 µM (inactive) | 2.13 µM (inactive) | 1.03 µM (active) | 2.96 µM (inactive)
C=CCN1C[C@H](C)N([C@@H](c2ccc(C(=O)N3CCCCC3)cc2)c2cccc(OC)c2)C[C@H]1C | 43.7 µM (inactive) | 66.4 µM (inactive) | 43 µM (inactive) | 14.4 µM (inactive) | 28.6 µM (inactive) | 29.4 µM (inactive) | 89.5 µM (inactive) | 24.7 µM (inactive) | 30.1 µM (inactive) | 36.9 µM (inactive) | 22.2 µM (inactive) | 19.1 µM (inactive) | 98.6 µM (inactive) | 49.2 µM (inactive) | 30.5 µM (inactive) | – | 24.5 µM (inactive) | 45.4 µM (inactive) | 40 µM (inactive) | 32.3 µM (inactive)
O=C(NCCCCN(CCCNC(=O)C(F)(F)F)Cc1ccccc1)C(F)(F)F | > 100 µM (inactive) | – | > 100 µM (inactive) | – | > 100 µM (inactive) | > 100 µM (inactive) | > 100 µM (inactive) | > 100 µM (inactive) | > 100 µM (inactive) | > 100 µM (inactive) | > 100 µM (inactive) | > 100 µM (inactive) | > 100 µM (inactive) | > 100 µM (inactive) | > 100 µM (inactive) | > 100 µM (inactive) | > 100 µM (inactive) | 35.4 µM (inactive) | > 100 µM (inactive) | > 100 µM (inactive)
Nc1ccccc1/N=N/c1c(S(=O)(=O)O)cc2cc(S(=O)(=O)O)cc(O)c2c1O | > 100 µM (inactive) | > 100 µM (inactive) | 11.2 µM (inactive) | > 100 µM (inactive) | 26.2 µM (inactive) | > 100 µM (inactive) | > 100 µM (inactive) | > 100 µM (inactive) | > 100 µM (inactive) | > 100 µM (inactive) | – | > 100 µM (inactive) | > 100 µM (inactive) | > 100 µM (inactive) | > 100 µM (inactive) | > 100 µM (inactive) | > 100 µM (inactive) | > 100 µM (inactive) | > 100 µM (inactive) | > 100 µM (inactive)
CCCCCC(=O)N[C@H](C(=O)N[C@H](C(=O)N(C)[C@H](C(=O)N1CCC[C@H]1C(=O)N1CCC[C@H]1C(=O)O[C@H](C(=O)N1C(=O)C=C(OC)[C@@H]1Cc1ccccc1)C(C)C)C(C)C)C(C)C)C(C)C (Hexanoyl-VV[NMeV]PP-X26) | > 100 µM (inactive) | > 100 µM (inactive) | 94.6 µM (inactive) | > 100 µM (inactive) | 48.2 µM (inactive) | 46.3 µM (inactive) | > 100 µM (inactive) | > 100 µM (inactive) | 59.2 µM (inactive) | > 100 µM (inactive) | 36.3 µM (inactive) | – | 36.2 µM (inactive) | > 100 µM (inactive) | – | > 100 µM (inactive) | > 100 µM (inactive) | > 100 µM (inactive) | 19 µM (inactive) | > 100 µM (inactive)
C=CCOC(=O)N1[C@H]2C#C/C=C\C#C[C@]3(O)C(=O)C[C@H](C)[C@]24O[C@]43C2=CC(=O)C=CC21OC (stereo partly drawn) | 22.5 µM (inactive) | 33.1 µM (inactive) | 25 µM (inactive) | – | 19.8 µM (inactive) | 2.35 µM (inactive) | 60.1 µM (inactive) | 27.7 µM (inactive) | 16.9 µM (inactive) | 32.9 µM (inactive) | 18 µM (inactive) | – | 38 µM (inactive) | – | 23.2 µM (inactive) | 95.9 µM (inactive) | 64.9 µM (inactive) | 30.5 µM (inactive) | 35.2 µM (inactive) | 20.2 µM (inactive)
C#CC(O)/C=C/C(O)CCCC(O)CC#CC(O)C#CCCCCC(O)/C=C/CCCC(O)/C=C/CCCCCCCCCCCCCC(O)C(O)C#CC(=O)O (stereo not drawn) | > 25 µM (inactive) | > 25 µM (inactive) | > 25 µM (inactive) | 13.9 µM (inactive) | > 25 µM (inactive) | > 25 µM (inactive) | > 25 µM (inactive) | > 25 µM (inactive) | > 25 µM (inactive) | > 25 µM (inactive) | > 25 µM (inactive) | > 25 µM (inactive) | > 25 µM (inactive) | – | > 25 µM (inactive) | > 25 µM (inactive) | > 25 µM (inactive) | > 25 µM (inactive) | 20 µM (inactive) | > 25 µM (inactive)
N#Cc1ccc(/N=N/N2CCCC2)cc1 | > 100 µM (inactive) | > 100 µM (inactive) | > 100 µM (inactive) | > 100 µM (inactive) | > 100 µM (inactive) | 96.8 µM (inactive) | > 100 µM (inactive) | – | > 100 µM (inactive) | > 100 µM (inactive) | > 100 µM (inactive) | 86.3 µM (inactive) | > 100 µM (inactive) | > 100 µM (inactive) | – | – | > 100 µM (inactive) | > 100 µM (inactive) | > 100 µM (inactive) | > 100 µM (inactive)
